Reference: PubChem BioAssay AID1259407 (Chemical Carcinogenesis Research Information System (CCRIS), 2018)
Calls of active or inactive are those of the source. How the calls were made is not given here.

Test system: CCRIS mutagenicity, Ames/micronucleus/aberration tests
Experiment: CCRIS mutagenicity studies
[1] = Test System: AMES SALMONELLA TYPHIMURIUM, Strain/Indicator: TA98, Metabolic Activation: HAMSTER, LIVER, S-9, AROCLOR 1254 (10%), Method: PREINCUBATION
[2] = Test System: AMES SALMONELLA TYPHIMURIUM, Strain/Indicator: TA98, Metabolic Activation: NONE, Method: PREINCUBATION
[3] = Test System: AMES SALMONELLA TYPHIMURIUM, Strain/Indicator: TA98, Metabolic Activation: RAT, LIVER, S-9, AROCLOR 1254 (10%), Method: PREINCUBATION
[4] = Test System: AMES SALMONELLA TYPHIMURIUM, Strain/Indicator: TA100, Metabolic Activation: HAMSTER, LIVER, S-9, AROCLOR 1254 (10%), Method: PREINCUBATION
[5] = Test System: AMES SALMONELLA TYPHIMURIUM, Strain/Indicator: TA100, Metabolic Activation: NONE, Method: PREINCUBATION
[6] = Test System: AMES SALMONELLA TYPHIMURIUM, Strain/Indicator: TA100, Metabolic Activation: RAT, LIVER, S-9, AROCLOR 1254 (10%), Method: PREINCUBATION
[7] = Test System: AMES SALMONELLA TYPHIMURIUM, Strain/Indicator: TA1535, Metabolic Activation: HAMSTER, LIVER, S-9, AROCLOR 1254 (10%), Method: PREINCUBATION
[8] = Test System: AMES SALMONELLA TYPHIMURIUM, Strain/Indicator: TA1535, Metabolic Activation: NONE, Method: PREINCUBATION
[9] = Test System: AMES SALMONELLA TYPHIMURIUM, Strain/Indicator: TA1535, Metabolic Activation: RAT, LIVER, S-9, AROCLOR 1254 (10%), Method: PREINCUBATION
[10] = Test System: AMES SALMONELLA TYPHIMURIUM, Strain/Indicator: TA1537, Metabolic Activation: HAMSTER, LIVER, S-9, AROCLOR 1254 (10%), Method: PREINCUBATION
[11] = Test System: AMES SALMONELLA TYPHIMURIUM, Strain/Indicator: TA1537, Metabolic Activation: NONE, Method: PREINCUBATION
[12] = Test System: AMES SALMONELLA TYPHIMURIUM, Strain/Indicator: TA1537, Metabolic Activation: RAT, LIVER, S-9, AROCLOR 1254 (10%), Method: PREINCUBATION

Measured: mutagenic call

CC(=O)OC/C=C(\C)CCC=C(C)C
inactive: End Point: IN VITRO CHROMOSOMAL ABERRATIONS, Test System: CHINESE HAMSTER OVARY CELLS, Metabolic Activation: NONE inactive; negative; precipitation occurred at 100 ug/ml | End Point: IN VITRO CHROMOSOMAL ABERRATIONS, Test System: CHINESE HAMSTER OVARY CELLS, Metabolic Activation: RAT, LIVER, S-9, AROCLOR 1254 inactive; negative; precipitation occurred at 150 ug/ml

CCCCNC(=O)OCC#CI
inactive: End Point: Ames Salmonella typhimurium, Test System: TA98, Metabolic Activation: S-9, Method: Not specified inactive; negative | End Point: Ames Salmonella typhimurium, Test System: TA100, Metabolic Activation: S-9, Method: Not specified inactive; negative | End Point: Ames Salmonella typhimurium, Test System: TA1535, Metabolic Activation: S-9, Method: Not specified inactive; negative | End Point: Ames Salmonella typhimurium, Test System: TA1537, Metabolic Activation: S-9, Method: Not specified inactive; negative | End Point: Ames Salmonella typhimurium, Test System: TA1538, Metabolic Activation: S-9, Method: Not specified inactive; negative | End Point: In vivo micronucleus, Test System: Bone marrow polychromatic erythrocytes, Species: Mouse, Strain/Sex: CD-1/Males and females, Route: Oral inactive; negative | Test System: Ames Salmonella typhimurium, Strain/Indicator: TA98, Metabolic Activation: None, Method: Not specified inactive; negative | Test System: Ames Salmonella typhimurium, Strain/Indicator: TA100, Metabolic Activation: None, Method: Not specified inactive; negative | Test System: Ames Salmonella typhimurium, Strain/Indicator: TA1535, Metabolic Activation: None, Method: Not specified inactive; negative | Test System: Ames Salmonella typhimurium, Strain/Indicator: TA1537, Metabolic Activation: None, Method: Not specified inactive; negative | Test System: Ames Salmonella typhimurium, Strain/Indicator: TA1538, Metabolic Activation: None, Method: Not specified inactive; negative

CC1CC(OC(=O)c2ccccc2O)CC(C)(C)C1 (stereo not given)
inactive: [1] inactive; negative | [2] inactive; negative | [3] inactive; negative | [4] inactive; negative | [5] inactive; negative | [6] inactive; negative | [7] inactive; negative | [8] inactive; negative | [9] inactive; negative | [10] inactive; negative | [11] inactive; negative | [12] inactive; negative

CCO[Si](C)(C)OCC
inactive: Test System: AMES SALMONELLA TYPHIMURIUM, Strain/Indicator: TA98, Metabolic Activation: NONE, Method: STANDARD PLATE inactive; negative | Test System: AMES SALMONELLA TYPHIMURIUM, Strain/Indicator: TA98, Metabolic Activation: RAT LIVER S-9, AROCLOR 1254, Method: STANDARD PLATE inactive; negative | Test System: AMES SALMONELLA TYPHIMURIUM, Strain/Indicator: TA100, Metabolic Activation: NONE, Method: STANDARD PLATE inactive; negative | Test System: AMES SALMONELLA TYPHIMURIUM, Strain/Indicator: TA100, Metabolic Activation: RAT LIVER S-9, AROCLOR 1254, Method: STANDARD PLATE inactive; negative | Test System: AMES SALMONELLA TYPHIMURIUM, Strain/Indicator: TA1535, Metabolic Activation: NONE, Method: STANDARD PLATE inactive; negative | Test System: AMES SALMONELLA TYPHIMURIUM, Strain/Indicator: TA1535, Metabolic Activation: RAT LIVER S-9, AROCLOR 1254, Method: STANDARD PLATE inactive; negative | Test System: AMES SALMONELLA TYPHIMURIUM, Strain/Indicator: TA1537, Metabolic Activation: NONE, Method: STANDARD PLATE inactive; negative | Test System: AMES SALMONELLA TYPHIMURIUM, Strain/Indicator: TA1537, Metabolic Activation: RAT LIVER S-9, AROCLOR 1254, Method: STANDARD PLATE inactive; negative | Test System: AMES SALMONELLA TYPHIMURIUM, Strain/Indicator: TA1538, Metabolic Activation: NONE, Method: STANDARD PLATE inactive; negative | Test System: AMES SALMONELLA TYPHIMURIUM, Strain/Indicator: TA1538, Metabolic Activation: RAT LIVER S-9, AROCLOR 1254, Method: STANDARD PLATE inactive; negative | Test System: E. COLI, Strain/Indicator: P3078 POLA, Metabolic Activation: NONE, Method: SPOT TEST inactive; negative | Test System: E. COLI, Strain/Indicator: P3078 POLA, Metabolic Activation: RAT LIVER S-9, AROCLOR 1254, Method: SPOT TEST inactive; negative | Test System: E. COLI, Strain/Indicator: W3110, Metabolic Activation: NONE, Method: SPOT TEST inactive; negative | Test System: E. COLI, Strain/Indicator: W3110, Metabolic Activation: RAT LIVER S-9, AROCLOR 1254, Method: SPOT TEST inactive; negative | Test System: MOUSE LYMPHOMA, Strain/Indicator: L5178Y (TK+/TK-), Metabolic Activation: NONE, Method: SUSPENSION/PLATE inactive; negative | Test System: MOUSE LYMPHOMA, Strain/Indicator: L5178Y (TK+/TK-), Metabolic Activation: RAT, LIVER, S-9, Method: SUSPENSION/PLATE inactive; negative

O=C(O)c1ccc(S(=O)(=O)N(Cl)Cl)cc1
inactive: [1] inactive; negative | [2] inactive; negative | [3] inactive; negative | [4] inactive; negative | [5] inactive; negative | [6] inactive; negative | [7] inactive; negative | [8] inactive; negative | [9] inactive; negative | [10] inactive; negative | [11] inactive; negative | [12] inactive; negative

CC(C)NCC(O)COc1cccc2[nH]ccc12 (stereo not given)
inactive: Test System: AMES SALMONELLA TYPHIMURIUM, Strain/Indicator: TA98, Metabolic Activation: NONE inactive; negative | Test System: AMES SALMONELLA TYPHIMURIUM, Strain/Indicator: TA98, Metabolic Activation: RAT, LIVER, S-9, AROCLOR 1254 inactive; negative | Test System: AMES SALMONELLA TYPHIMURIUM, Strain/Indicator: TA100, Metabolic Activation: NONE inactive; negative | Test System: AMES SALMONELLA TYPHIMURIUM, Strain/Indicator: TA100, Metabolic Activation: RAT, LIVER, S-9, AROCLOR 1254 inactive; negative | Test System: AMES SALMONELLA TYPHIMURIUM, Strain/Indicator: TA1535, Metabolic Activation: NONE inactive; negative | Test System: AMES SALMONELLA TYPHIMURIUM, Strain/Indicator: TA1535, Metabolic Activation: RAT, LIVER, S-9, AROCLOR 1254 inactive; negative | Test System: AMES SALMONELLA TYPHIMURIUM, Strain/Indicator: TA1537, Metabolic Activation: NONE inactive; negative | Test System: AMES SALMONELLA TYPHIMURIUM, Strain/Indicator: TA1537, Metabolic Activation: RAT, LIVER, S-9, AROCLOR 1254 inactive; negative

Cc1c(C)c([N+](=O)[O-])c(C(C)(C)C)c([N+](=O)[O-])c1C
inactive: Test System: AMES SALMONELLA TYPHIMURIUM, Strain/Indicator: TA98, Metabolic Activation: RAT, LIVER, S-9, AROCLOR 1254, Method: PREINCUBATION inactive; negative | Test System: AMES SALMONELLA TYPHIMURIUM, Strain/Indicator: TA98, Metabolic Activation: RAT, LIVER, S-9, AROCLOR 1254, Method: STANDARD PLATE inactive; negative | Test System: AMES SALMONELLA TYPHIMURIUM, Strain/Indicator: TA100, Metabolic Activation: RAT, LIVER, S-9, AROCLOR 1254, Method: PREINCUBATION inactive; negative | Test System: AMES SALMONELLA TYPHIMURIUM, Strain/Indicator: TA100, Metabolic Activation: RAT, LIVER, S-9, AROCLOR 1254, Method: STANDARD PLATE inactive; negative
